According to patent US10093654B2, “Therapeutically active compounds and their methods of use” (Agios Pharmaceuticals, Inc., priority 2013, dated 2018):
Several values for one entry are separate records, joined by “and”; a condition that tells them apart may be missing. Equal values may be shown once. Values belong to the compound of their own block, whether it stands above or below them.

Columns and labels:
human CYP3A4 = experiment: CYP3A4 induction; type: in vitro ADME
CYP1A2 [1] = experiment: CYP1A2 induction; type: in vitro ADME, human
CYP2B6 = CYP2B6 induction; type: in vitro ADME, human
CYP2C8 = CYP2C8 (Homo sapiens, UniProt P10632); experiment: Direct inhibition of CYP2C8; type: in vitro ADME
CYP2C9 = CYP2C9 (Homo sapiens, UniProt P11712); experiment: Direct inhibition of CYP2C9; type: in vitro ADME
CYP1A2 [2] = molecular target: CYP1A2 (Homo sapiens, UniProt P05177); experiment: Direct inhibition of CYP1A2; type: in vitro ADME
CYP enzymes = experiment: Time-dependent or metabolism-dependent inhibition of CYP enzymes; type: in vitro ADME, human
[3] = system: TF-1/IDH2 (R140Q) mutant cells; experiment: 2-HG levels in TF-1/IDH2 (R140Q) mutant cells; type: cell-based
TF-1 IDH2 (R140Q) cells = experiment: GM-CSF-independent growth in TF-1 IDH2 (R140Q) cells; type: cell-based; details: 1 μM for 7 days
[4] = system: IDH2 (R140Q) in TF-1 cells; experiment: Histone hypermethylation, Western blot, TF-1 IDH2 (R140Q) cells; type: cell-based
[5] = system: TF-1 IDH2 (R140Q) mutant cells; experiment: Differentiation block, EPO-induced expression in TF-1 IDH2 (R140Q) mutant cells; type: cell-based; details: when 2-HG levels fall below 1 mM
[6] = system: primary human IDH2 (R140Q) mutant AML cells; experiment: Ex vivo treatment of primary human AML blast cells; type: cell-based; details: for percentage of blast cells: from 90%, 500, 1000, 5000 nM
Source text: Cells are counted at Days 3, 6, 9, and 13 and normalized to DMSO control.

U87MG IDH2 (R140Q) tumor = experiment: PK/PD study in mouse xenograft model, tumor 2-HG; type: in vivo, female nude mice
Protocol: Pharmacokinetic/pharmacodynamic (PK/PD) studies are conducted in female nude mice inoculated subcutaneously with U87MG IDH2 (R140Q) tumor.

[7] = system: AMM7577-P2 (HuKemia® model); experiment: Survival in mutant positive AML mouse model
Source text: 40 NOD/SCID mice are engrafted on Day 1 with 2*10^6/mouse of AMM7577-P2 (HuKemia® model, Crown BioScience Inc.) frozen cells that may be thawed out from liquid N2. Peripheral blood samples are collected weekly for FACS analysis of human leukemia cells starting at Week 3 post-cell inoculation. Plasma and urine samples are collected weekly starting at Week 3 until the termination point. When the tumor growth is about 10% of human CD45+ cell in peripheral blood samples, the engrafted mice may be randomly allocated into 5 groups using the treatment schedule denoted in Table 1.

Sequence of CYP2C8 (P10632 whole entry): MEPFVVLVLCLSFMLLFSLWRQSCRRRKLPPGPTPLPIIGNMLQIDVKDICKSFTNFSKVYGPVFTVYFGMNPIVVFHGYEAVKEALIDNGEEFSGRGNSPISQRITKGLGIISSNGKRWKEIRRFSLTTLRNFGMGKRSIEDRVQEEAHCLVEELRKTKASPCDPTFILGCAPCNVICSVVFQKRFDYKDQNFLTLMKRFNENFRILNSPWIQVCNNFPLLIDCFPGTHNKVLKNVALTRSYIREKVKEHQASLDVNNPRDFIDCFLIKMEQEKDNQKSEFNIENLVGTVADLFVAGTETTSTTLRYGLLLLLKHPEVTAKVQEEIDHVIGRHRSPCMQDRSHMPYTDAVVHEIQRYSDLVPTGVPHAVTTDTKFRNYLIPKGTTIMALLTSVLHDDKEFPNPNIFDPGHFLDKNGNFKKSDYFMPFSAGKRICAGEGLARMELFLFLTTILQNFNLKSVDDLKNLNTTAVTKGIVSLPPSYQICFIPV
Sequence of CYP1A2 (Homo sapiens, UniProt P05177) (P05177 whole entry): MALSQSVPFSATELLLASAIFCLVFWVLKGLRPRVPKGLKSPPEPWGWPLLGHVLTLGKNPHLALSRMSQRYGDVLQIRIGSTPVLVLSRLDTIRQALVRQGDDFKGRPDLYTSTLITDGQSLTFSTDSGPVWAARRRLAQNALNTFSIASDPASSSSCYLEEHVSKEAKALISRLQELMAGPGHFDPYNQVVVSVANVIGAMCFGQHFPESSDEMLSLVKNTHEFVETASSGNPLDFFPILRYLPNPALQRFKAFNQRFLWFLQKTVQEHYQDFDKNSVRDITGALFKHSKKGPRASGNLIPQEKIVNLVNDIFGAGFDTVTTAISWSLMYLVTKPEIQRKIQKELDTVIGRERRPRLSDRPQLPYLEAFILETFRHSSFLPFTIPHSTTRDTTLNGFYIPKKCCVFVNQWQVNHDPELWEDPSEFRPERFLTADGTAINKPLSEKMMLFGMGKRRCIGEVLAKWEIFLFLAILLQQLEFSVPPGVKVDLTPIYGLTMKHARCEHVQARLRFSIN
Sequence of CYP2C9 (P11712 whole entry): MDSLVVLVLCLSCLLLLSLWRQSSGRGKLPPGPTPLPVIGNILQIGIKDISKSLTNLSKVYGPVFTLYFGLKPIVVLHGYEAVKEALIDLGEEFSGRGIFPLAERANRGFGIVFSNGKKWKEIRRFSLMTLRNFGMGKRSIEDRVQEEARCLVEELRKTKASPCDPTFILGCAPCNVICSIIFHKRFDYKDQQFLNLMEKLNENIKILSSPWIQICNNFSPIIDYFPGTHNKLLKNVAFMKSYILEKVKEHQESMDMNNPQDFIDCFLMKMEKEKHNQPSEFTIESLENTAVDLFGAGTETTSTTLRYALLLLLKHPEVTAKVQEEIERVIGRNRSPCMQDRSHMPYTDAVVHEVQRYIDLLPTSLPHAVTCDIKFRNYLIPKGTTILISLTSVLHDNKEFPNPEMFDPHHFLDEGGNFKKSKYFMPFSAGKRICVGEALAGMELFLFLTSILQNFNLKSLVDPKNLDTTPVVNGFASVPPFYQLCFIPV

induction of human CYP3A4 (human CYP3A4): weak inducers
victim of strong CYP3A4 inducers such as rifampicin (human CYP3A4; used as a marker substrate): neither compound appears to be a victim
induction of CYP1A2 (CYP1A2 [1]): not observed
induction of CYP2B6 (CYP2B6): not observed
IC50 (CYP2C8): 5.3 µM
IC50 (CYP2C9): 30 µM
IC50 (CYP1A2 [2]): 0.43 µM
Compound: Nc1nc(Nc2ccnc(C(F)(F)F)c2)nc(-c2cccc(C(F)(F)F)n2)n1 [compound 2, 6-(6-(trifluoromethyl)pyridin-2-yl)-N2-(2-(trifluoromethyl)pyridin-4-yl)-1,3,5-triazine-2,4-diamine]
time-dependent or metabolism-dependent inhibition of CYP enzymes (CYP enzymes): Neither compound shows time-dependent or metabolism-dependent inhibition

Compound: CC(C)(O)CNc1nc(Nc2ccnc(C(F)(F)F)c2)nc(-c2cccc(C(F)(F)F)n2)n1 [compound 3, 2-Methyl-1-[(4-[6-(trifluoromethyl)pyridin-2-yl]-6-{[2-(trifluoromethyl)pyridin-4-yl]amino}-1,3,5-triazin-2-yl)amino]propan-2-ol]
intracellular levels of 2-HG ([3]; 5 μM, 7 days, 15.5 mM with DMSO): 0.08 mM
inhibition at 1 µM ([3]; 168 h, read-out: 2-HG production inhibited): > 99%
IC90 ([3]; 168 h, read-out: inhibitory concentration, 90% (IC90) for 2-HG inhibition): 0.16 µM
IC50 ([3]; 168 h, read-out: intracellular IC50 for 2-HG inhibition): 0.016 µM
GM-CSF independent growth (TF-1 IDH2 (R140Q) cells): reversed
histone hypermethylation induced by IDH2 (R140Q) ([4]; Western blot, H3K4me3, H3K9me3, H3K27me3, H3K36me3): reversed
dose needed to induce changes in histone methylation ([4]; within the first 7 days): 200 nM
EPO-induced expression of hemoglobin gamma ½ and Kruppel-like factor 1 (KLF-1) [5]: restores
population of more differentiated cells (metamyelocytes) ([6]; 9 days ex vivo): clear increase
percentage of blast cells ([6]; by Day 6): 55%
percentage of blast cells ([6]; by Day 9): 40%
EAUC90[0-12 hr], AUC0-12 hr for sustained 90% tumor 2-HG inhibition (U87MG IDH2 (R140Q) tumor; estimated): approximately 5000 hr·ng/mL
EAUC97[0-12 h], AUC0-12 hr for sustained 97% tumor 2-HG inhibition (U87MG IDH2 (R140Q) tumor; estimated): ~15200 ng·h/mL
tumor 2-HG concentration (U87MG IDH2 (R140Q) tumor; following a single oral dose): decreases rapidly
Survival at study termination ([7]; 5 mg/kg PO/BID, Day 48-84): 4/9
Survival at study termination ([7]; 15 mg/kg PO/BID, Day 48-84): 6/9
Survival at study termination ([7]; 45 mg/kg PO/BID, Day 48-84): 9 and 9/9
leukemia and differentiation in treated animals ([7]; 5, 15, 45 mg/kg): dose dependent decrease in leukemia and evidence of normal differentiation
survival in comparison to cytarabine ([7]; 5, 15, 45 mg/kg): dose dependent survival advantage

Compound: Nc1ccn([C@@H]2O[C@H](CO)[C@@H](O)[C@@H]2O)c(=O)n1 [cytarabine, reference compound]
Survival at study termination ([7]; 2 mg/kg, 5 Days, Day 48-52): 0/4
